Results on seven molecules are retold here after patent publication US20050143371A1, “Beta-carboline compounds and analogues thereof as mitogen-activated protein kinase-activated protein kinase-2 inhibitors” (Pharmacia Corporation, priority 2003, published 2005).

The test system of one assay is TNFα release, U937 cells. The experiment in a line: U937 Cell TNFα Release Assay (LPS-stimulated, TNFα ELISA). It counts as cell-based, human. The following applies: additional values are replicate IC50 experiments, read-out: TNF Release Assay Avg. IC50. As for the experimental part: U937 Cell TNFα Release Assay
Differentiation of U937 to monocytic/macrophage-like cells is induced by the addition of phorboll2-myristate 13-acetate (Sigma) at final concentration of 20 ng/ml to a culture of U937 cells at ˜0.5 million cells/ml and incubated for 24 hrs. The cells are centrifuged, washed with PBS and resuspended in fresh media without PMA and incubated for 24 hrs. Cells adherent to the culture flask are harvested by scraping, centrifugation, and resuspended in fresh media to 2 million cells/ml, and 0.2 ml is aliquoted to each of 96 wells in flat-bottom plate. Cells are then incubated for an additional 24 hrs to allow for recovery. The media is removed from the cells, and 0.1 ml of fresh media is added per well. 0.05 ml of serially diluted compound or control vehicle (Media with DMSO) is added to the cells. […] Cells are incubated at 37° C. for 4 hrs. After 4 hrs incubation, supernatants are harvest and assayed by ELISA for the presence of TNFα.
Coating solution was aspirated the following day and wells were blocked with 1 mg/ml gelatin in PBS (plus 1×thimerasol) for 2 days at 4° C. Prior to using, wells were washed 3× with wash buffer (PBS with 0.05% Tween). Cultured media samples were diluted in EIA buffer (5 mg/ml bovine γ-globulin, 1 mg/ml gelatin, 1 ml/l Tween-20, 1 mg/ml thimerasol in PBS), added to wells (0.1 ml/well) in triplicate and allowed to incubate for 1.5 hr at 37° C. in a humidified chamber. […] After final washing, plates were developed with peroxidase-ABTS solution (Kirkegaard/Perry #50-66-01, 0.1 ml/well). […] TNF levels were quantitated from a recombinant human TNFα (R&D Systems #210-TA-010) standard curve using a quadratic parameter fit generated by SoftMaxPRO software. ELISA sensitivity was approximately 30 pg TNF/ml. IC50 values for compounds were generated using BioAssay Solver.
(An ELISA detects its analyte on a solid surface through an enzyme-linked reagent.)

The target of a further assay is Recombinant MAPKAPK2 (Homo sapiens, UniProt P49137). Nature of the assay: Determination of MK-2 IC50 (HSP-peptide phosphorylation, anion exchange resin capture assay).
The subject of assay [1] is murine model of endotoxin-induced shock. The following applies: cited from earlier work.
Assay [2] concerns mouse collagen-induced arthritis. The following applies: in vivo; cited from earlier work.
The next assay concerns rat adjuvant arthritis. The following applies: in vivo; cited from earlier work.
The mark [3] stands for this setting: Homo sapiens, U-937, U937 cells.
The mark [4] stands for this setting: read-out: in vitro MK-2 inhibition IC50.

Molecules are shown by their SMILES. Where “and” joins values, the source holds several entries; their conditions need not be identical. Identical values can stand only once. Counter-ions that a name gives are not always drawn. Like-named read-outs stand apart in the source and are kept apart here.

Chain of Recombinant MAPKAPK2 (P49137 whole entry, species assumed): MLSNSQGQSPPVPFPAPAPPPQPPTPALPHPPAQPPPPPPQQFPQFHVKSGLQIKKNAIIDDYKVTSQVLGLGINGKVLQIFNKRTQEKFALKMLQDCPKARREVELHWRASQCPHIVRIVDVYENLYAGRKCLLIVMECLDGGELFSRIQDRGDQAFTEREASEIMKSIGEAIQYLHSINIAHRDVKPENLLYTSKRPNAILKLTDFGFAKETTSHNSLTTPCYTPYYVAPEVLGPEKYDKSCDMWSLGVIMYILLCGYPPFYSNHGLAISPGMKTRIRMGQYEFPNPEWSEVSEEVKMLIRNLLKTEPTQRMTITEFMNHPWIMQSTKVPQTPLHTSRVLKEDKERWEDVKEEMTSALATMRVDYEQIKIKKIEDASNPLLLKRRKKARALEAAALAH
Procedure for Recombinant MAPKAPK2: The phosphorylation of HSP-peptide ([sequence]) by MAPKAPK2 was measured using an anion exchange resin capture assay method. […] The reaction was terminated and [γ^33P]ATP was removed from solution by the addition of 150 μl of AG 1×8 ion exchange resin in 900 mM sodium formate pH 3.0. A 50 μl aliquot of head volume was removed from the quenched reaction mixture and added to a 96-well plate, 150 μl of Microscint-40 (Packard) was added and the amount of phosphorylated-peptide was determined. Allow the Microscint to sit in the plates for 60 minutes prior to counting.
Compounds are evaluated as potential inhibitors of the MK2 kinase by measuring their effects on MK2 phosphorylation of the peptide substrate. Compounds may be screened initially at two concentrations prior to determination of IC50 values. Screening results are expressed as percent inhibition at the concentrations of compound tested. For IC50 value determinations, compounds are tested at six concentrations in ten-fold serial dilutions with each concentration tested in triplicate. Results are expressed as IC50 values in micromolar. The assay is performed at a final concentration of 2% DMSO.

The IC50 is the concentration that inhibits the measured activity by half. Consider `O/N=C1\CCCc2c1[nH]c1ccc(Br)cc21` [Compound 14], for which the IC50 in the assay on TNFα release, U937 cells (setting [3]) came out at 15.3 µM; at Recombinant MAPKAPK2 it was 7.01 µM.
Consider `O=C1NCCc2c1[nH]c1ccc(CCc3ccccc3)cc21` [Compound 42, 6-(2-phenylethyl)-2,3,4,9-tetra-hydro-1H-beta-car-bolin-1-one], for which the IC50 at Recombinant MAPKAPK2 is greater than 200 µM.
In the case of `COc1ccc2[nH]c3c(c2c1)CCC(C)/C3=N/O` (stereo not shown) [Compound 19, 6-methoxy-2-methyl-2,3,4,9-tetrahydro-1H-car-bazol-1-one oxime], the IC50 with TNFα release, U937 cells (U937 cells) is 100 µM and 95 µM.
For the molecule `O=C1NCCc2[nH]c3c(ccc4cnccc43)c21` [Compound 1, 8,9,10,11-tetrahydro-7H-py-rido[3′,4′:4,5]pyrrolo[2,3-f]isoquinolin-7-one trifluoroacetate], the IC50 in the assay on TNFα release, U937 cells (setting [3]) was 0.845 µM.
For the molecule `ON=C1CCCc2c1[nH]c1ccc(C(F)(F)F)cc21` [6-(trifluoromethyl)-2,3,4,9-tetrahydro-1H-carbazol-1-one oxime], the IC50 on Recombinant MAPKAPK2 (setting [4]) was less than 200 µM.
As to `C[S+]([O-])c1ccc(-c2nc(-c3ccncc3)c(-c3ccc(F)cc3)[nH]2)cc1` (stereo not shown) [SB203580], the mortality entry in assay [1] is listed as “reduce mortality”. Further, the “development of mouse collagen-induced arthritis” value in assay [2] is “inhibit the development”. In addition, the “development of rat adjuvant arthritis” value with rat adjuvant arthritis is listed as “inhibit the development”.
In the case of `COC(=O)c1cccc2c3c([nH]c12)CCNC3=O` [Example 6, methyl 1-oxo-2,3,4,5-tetrahydro-1H-pyrido[4,3-b]indole-6-carboxylate], the IC50 on Recombinant MAPKAPK2 (setting [4]) is less than 20 µM.
